Where “and” joins values, the source holds several entries; their conditions need not be identical. Identical values can stand only once. Calls of active or inactive are those of the source.
Key:
[1] = biological target: Ephrin type-A receptor 4 (Mus musculus, UniProt Q03137); test: EphA4 ligand-binding antagonists – biochemical, colorimetric, mouse EphA4, primary screen (AID 689); type: functional
[2] = biological target: T1, Induced myeloid leukemia cell differentiation protein Mcl-1 (Homo sapiens, UniProt Q07820); type: functional
T1 sequence (Q07820 whole entry): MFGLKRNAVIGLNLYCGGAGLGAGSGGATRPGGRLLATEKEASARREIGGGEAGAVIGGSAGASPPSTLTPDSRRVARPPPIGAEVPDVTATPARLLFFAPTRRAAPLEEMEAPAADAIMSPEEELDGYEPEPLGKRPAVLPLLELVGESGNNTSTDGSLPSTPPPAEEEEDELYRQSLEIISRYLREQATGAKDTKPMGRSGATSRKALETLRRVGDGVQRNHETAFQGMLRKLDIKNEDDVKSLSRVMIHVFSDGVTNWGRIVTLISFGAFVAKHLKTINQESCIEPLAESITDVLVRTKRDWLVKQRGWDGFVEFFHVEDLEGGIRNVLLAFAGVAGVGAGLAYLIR

[3] = biological target: T2, Estrogen receptor beta (Homo sapiens, UniProt Q92731); test: blockers of SRC-3 recruitment to ERβ – biochemical, ELISA, streptavidin-HRP readout, orthogonal assay, confirmation (AID 1060)
T2 sequence (Q92731 whole entry): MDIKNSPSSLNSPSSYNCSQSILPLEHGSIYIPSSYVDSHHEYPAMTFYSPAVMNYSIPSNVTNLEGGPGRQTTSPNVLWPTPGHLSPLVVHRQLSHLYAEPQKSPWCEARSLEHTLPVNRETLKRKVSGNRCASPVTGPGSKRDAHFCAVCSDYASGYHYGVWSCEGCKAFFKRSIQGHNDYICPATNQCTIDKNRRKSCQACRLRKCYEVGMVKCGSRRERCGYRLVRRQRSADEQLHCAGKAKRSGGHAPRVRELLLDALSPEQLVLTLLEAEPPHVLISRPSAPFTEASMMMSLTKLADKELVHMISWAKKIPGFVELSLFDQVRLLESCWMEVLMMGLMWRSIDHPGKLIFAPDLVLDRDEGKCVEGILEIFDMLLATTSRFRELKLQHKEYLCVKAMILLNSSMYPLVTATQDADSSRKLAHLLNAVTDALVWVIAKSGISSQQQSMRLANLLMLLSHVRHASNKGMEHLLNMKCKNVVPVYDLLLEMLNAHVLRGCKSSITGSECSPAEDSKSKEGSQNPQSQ

[4] = test system: Vero; test: mammalian cell viability reduction – secondary assay, cytotoxicity control for West Nile virus antiviral project, dose response (AID 1650); type: functional; conditions: Chlorocebus sabaeus
[5] = biological target: Solute carrier family 12 member 2/member 5 (Homo sapiens, UniProt P55011+Q9H2X9); test: KCC2 and NKCC1 inhibition by rubidium flux, cell-based, NKCC1 counter-screen (AID 1734); type: functional, HEK293
[6] = biological target: T3, Dual specificity protein phosphatase 6 (Rattus norvegicus, UniProt Q64346); test: inhibition of rat DUSP6 enzyme activity – biochemical, in vitro, primary screen (AID 425)
T3 sequence (Q64346 whole entry): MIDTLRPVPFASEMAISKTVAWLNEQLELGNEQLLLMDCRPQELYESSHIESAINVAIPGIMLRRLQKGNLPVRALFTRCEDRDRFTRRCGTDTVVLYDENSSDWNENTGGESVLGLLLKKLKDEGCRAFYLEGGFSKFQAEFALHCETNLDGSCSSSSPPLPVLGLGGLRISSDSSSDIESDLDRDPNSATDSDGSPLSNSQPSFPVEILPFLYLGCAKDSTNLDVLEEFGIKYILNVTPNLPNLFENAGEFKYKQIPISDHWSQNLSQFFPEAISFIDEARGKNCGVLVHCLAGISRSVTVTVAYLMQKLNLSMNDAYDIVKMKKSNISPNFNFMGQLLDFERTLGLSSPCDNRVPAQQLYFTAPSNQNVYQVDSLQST

[7] = biological target: T2, Estrogen receptor beta
[8] = biological target: T4, Bcl-2-like protein 10 (Homo sapiens, UniProt Q9HD36); test: Bcl-B/TR3 peptide binding disruption – biochemical, fluorescence polarization, FITC-TR3 peptide, selectivity assay for Bfl-1 inhibitor project, primary screen (AID 748);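 note: fluorescence polarization from a fluorescein-labelled TR3 peptide binding purified Bcl-B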
T4 sequence (Q9HD36 whole entry): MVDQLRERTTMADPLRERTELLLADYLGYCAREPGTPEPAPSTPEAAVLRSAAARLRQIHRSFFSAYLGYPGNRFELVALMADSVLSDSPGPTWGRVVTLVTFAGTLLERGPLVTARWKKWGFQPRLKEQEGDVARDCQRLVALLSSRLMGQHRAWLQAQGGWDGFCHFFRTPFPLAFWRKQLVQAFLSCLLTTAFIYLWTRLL

[9] = biological target: T5, Tyrosine-protein phosphatase non-receptor type 7 (Homo sapiens, UniProt P35236); test: HePTP tyrosine phosphatase activity blockers – biochemical, absorbance, leukemia target, primary screen (AID 521); type: functional
T5 sequence (P35236 whole entry): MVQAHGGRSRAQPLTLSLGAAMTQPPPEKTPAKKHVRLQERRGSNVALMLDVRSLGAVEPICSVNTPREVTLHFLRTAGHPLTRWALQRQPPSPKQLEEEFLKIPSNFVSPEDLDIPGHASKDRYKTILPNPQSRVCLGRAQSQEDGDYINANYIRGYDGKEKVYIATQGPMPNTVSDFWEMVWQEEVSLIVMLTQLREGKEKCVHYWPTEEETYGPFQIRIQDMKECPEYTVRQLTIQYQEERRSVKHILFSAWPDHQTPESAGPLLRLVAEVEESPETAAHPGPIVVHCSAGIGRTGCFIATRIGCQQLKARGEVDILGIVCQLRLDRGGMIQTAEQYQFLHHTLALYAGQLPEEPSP

[10] = biological target: T1, Induced myeloid leukemia cell differentiation protein Mcl-1; test: blockers of MCL1 binding to BIM peptide – biochemical, fluorescence polarization, BIM-BH3 peptide, 1536-well, dose response (AID 2217)
[11] = biological target: Bcl-2-like protein 1 (Homo sapiens, UniProt Q07817); test: blockers of BCLXL peptide binding – biochemical, fluorescence polarization, 1536-well, selectivity assay for MCL1 inhibitor project, dose response (AID 2218)
Chain of Bcl-2-like protein 1 (Q07817 whole entry): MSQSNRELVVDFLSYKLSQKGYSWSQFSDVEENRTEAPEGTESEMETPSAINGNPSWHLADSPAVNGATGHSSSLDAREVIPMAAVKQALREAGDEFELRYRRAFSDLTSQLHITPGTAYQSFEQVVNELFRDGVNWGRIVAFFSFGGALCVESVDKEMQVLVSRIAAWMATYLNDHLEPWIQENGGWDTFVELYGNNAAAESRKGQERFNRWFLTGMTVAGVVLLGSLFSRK

[12] = biological target: T6, Bcl-2-related protein A1 (Mus musculus, UniProt Q07440); test: displacement of Bid BH3 peptide from Bfl-1 – biochemical, fluorescence polarization, FITC-Bid, mouse, primary screen (AID 432)
T6 sequence (Q07440 whole entry): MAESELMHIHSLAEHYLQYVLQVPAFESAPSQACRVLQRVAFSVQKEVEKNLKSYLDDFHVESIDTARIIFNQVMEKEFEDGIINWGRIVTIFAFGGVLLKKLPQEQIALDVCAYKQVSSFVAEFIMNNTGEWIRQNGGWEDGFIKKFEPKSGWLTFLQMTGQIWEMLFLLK

[13] = reduced cellular PGC1a acetyl-lysine signal – cell-based, cherry-picked samples, dose response (AID 720514); type: functional;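 note: potency may reflect raised or lowered acetylation signal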
[14] = reduction of Shn3 3'UTR-driven luciferase in osteoblasts – cell-based, Clone20 osteoblasts, firefly luciferase, cherry-picked, dose response (AID 624132); type: functional;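 note: firefly luciferase luminescence from reporter carrying the Shn3 3'UTR in osteoblasts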
[15] = test system: CHO; test: CHO cell viability loss, potency – luminescence, cytotoxicity control for TLR9-MyD88 binding inhibitor project, dose response (AID 588339); type: functional, cell-based, hamster; conditions: Cricetulus griseus;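 note: CHO cells stably coexpressing TLR9 and MyD88 fusions from primary screen; compound exposure lasted 48 hours before viability readout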
[16] = biological target: Beta Lactamase (Pseudomonas aeruginosa, UniProt Q932Y6); test: BLA reporter interference, concentration series – BLA reporter cells, FRET fluorescence, artefact control for TLR9-MyD88 binding inhibitor project, dose response (AID 588341); type: cell-based;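 note: cell based assay in CHO-K1 cells stably expressing beta-lactamase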
Chain of Beta Lactamase (Q932Y6 whole entry): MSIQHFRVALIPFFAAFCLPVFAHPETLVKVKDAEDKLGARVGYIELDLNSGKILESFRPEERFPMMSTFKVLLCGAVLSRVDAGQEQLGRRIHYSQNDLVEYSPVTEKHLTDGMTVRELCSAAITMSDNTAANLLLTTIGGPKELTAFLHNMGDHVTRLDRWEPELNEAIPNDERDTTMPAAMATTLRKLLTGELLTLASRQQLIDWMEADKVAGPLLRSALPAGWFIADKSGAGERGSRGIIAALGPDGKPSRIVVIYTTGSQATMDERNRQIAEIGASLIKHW

[17] = loss of viability in HepG2 cells – cell-based, CellTiter-Glo, cherry-picked, cytotoxicity control for Shn3 inhibitor project, dose response (AID 624134); type: functional
[18] = non-specific 3'UTR reporter inhibition in Clone20-Shn3RL – cell-based, Renilla luciferase, cherry-picked, counter-screen for Shn3 inhibitor project, dose response (AID 624133); type: functional
[19] = test system: INS1; test: INS-1E survival protection against cytokine death – cell-based, luminescence, retest, dose response (AID 449756); type: functional; conditions: Rattus norvegicus;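 note: cell death triggered by IL-1 beta plus TNF-alpha plus IFN-gamma mixture; protective hits raise ATP signal compared with cytokine alone wells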
[20] = biological target: T6, Bcl-2-related protein A1; test: small-molecule antagonists of Bfl-1/BH3 interaction – biochemical, TR-FRET, mouse Bfl-1, confirmation (AID 621);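 note: TR-FRET binding of GST-Bfl-1 to FITC-labelled Bid peptide via terbium antibody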
[21] = biological target: T7, Protein RecA (Mycobacterium tuberculosis, UniProt P9WHJ3); test: Fluorescence Cell-Free Homogeneous Dose Retest to Identify Inhibitors of RecA-Intein Splicing Activity. [Related pubchem assays (depositor defined):AID2097, AID2223, AID489010, AID492950]; type: functional
T7 sequence (P9WHJ3 whole entry): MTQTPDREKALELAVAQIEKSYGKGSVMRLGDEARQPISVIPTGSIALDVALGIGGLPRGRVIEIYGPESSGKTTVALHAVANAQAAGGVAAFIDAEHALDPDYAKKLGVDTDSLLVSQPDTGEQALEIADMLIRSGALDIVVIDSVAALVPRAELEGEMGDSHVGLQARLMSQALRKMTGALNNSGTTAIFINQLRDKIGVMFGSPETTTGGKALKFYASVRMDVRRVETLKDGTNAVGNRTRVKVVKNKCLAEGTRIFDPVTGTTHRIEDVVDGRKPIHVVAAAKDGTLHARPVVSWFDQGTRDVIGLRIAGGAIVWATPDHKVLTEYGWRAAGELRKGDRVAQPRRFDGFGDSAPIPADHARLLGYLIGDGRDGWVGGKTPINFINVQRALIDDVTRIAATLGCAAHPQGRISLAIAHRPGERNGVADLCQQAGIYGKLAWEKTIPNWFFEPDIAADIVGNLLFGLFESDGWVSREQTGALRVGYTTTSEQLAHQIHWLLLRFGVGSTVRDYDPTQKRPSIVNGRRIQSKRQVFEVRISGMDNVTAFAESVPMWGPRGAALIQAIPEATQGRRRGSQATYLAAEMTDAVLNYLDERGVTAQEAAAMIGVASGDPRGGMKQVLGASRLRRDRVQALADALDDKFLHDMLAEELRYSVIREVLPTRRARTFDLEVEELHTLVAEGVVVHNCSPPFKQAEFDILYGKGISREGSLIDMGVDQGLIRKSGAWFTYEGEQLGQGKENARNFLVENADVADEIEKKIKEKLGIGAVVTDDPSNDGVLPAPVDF

[22] = biological target: Glyceraldehyde-3-phosphate dehydrogenase (Homo sapiens, UniProt P04406)
Chain of Glyceraldehyde-3-phosphate dehydrogenase (P04406 whole entry): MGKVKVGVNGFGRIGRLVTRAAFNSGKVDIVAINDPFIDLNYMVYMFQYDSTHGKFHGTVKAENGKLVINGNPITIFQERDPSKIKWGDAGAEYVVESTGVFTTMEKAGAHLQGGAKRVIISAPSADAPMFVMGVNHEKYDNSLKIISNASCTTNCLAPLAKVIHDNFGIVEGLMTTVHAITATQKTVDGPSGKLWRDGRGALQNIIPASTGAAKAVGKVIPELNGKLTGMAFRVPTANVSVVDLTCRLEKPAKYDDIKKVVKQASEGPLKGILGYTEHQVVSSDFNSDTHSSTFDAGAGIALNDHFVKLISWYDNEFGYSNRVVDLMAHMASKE

[23] = Luminescence Cell-Based Dose Retest to Confirm Inhibitors of Cancer Stem Cells. [Related pubchem assays (depositor defined):AID2717, AID2721]; type: functional; conditions: Homo sapiens
[24] = biological target: T8, Replicative DNA helicase DnaB (Mycobacterium tuberculosis, UniProt P9WMR3); test: DnaB intein splicing inhibitors, dose response, biochemical, cell-free fluorescence (AID 449749); type: functional
T8 sequence (P9WMR3 whole entry): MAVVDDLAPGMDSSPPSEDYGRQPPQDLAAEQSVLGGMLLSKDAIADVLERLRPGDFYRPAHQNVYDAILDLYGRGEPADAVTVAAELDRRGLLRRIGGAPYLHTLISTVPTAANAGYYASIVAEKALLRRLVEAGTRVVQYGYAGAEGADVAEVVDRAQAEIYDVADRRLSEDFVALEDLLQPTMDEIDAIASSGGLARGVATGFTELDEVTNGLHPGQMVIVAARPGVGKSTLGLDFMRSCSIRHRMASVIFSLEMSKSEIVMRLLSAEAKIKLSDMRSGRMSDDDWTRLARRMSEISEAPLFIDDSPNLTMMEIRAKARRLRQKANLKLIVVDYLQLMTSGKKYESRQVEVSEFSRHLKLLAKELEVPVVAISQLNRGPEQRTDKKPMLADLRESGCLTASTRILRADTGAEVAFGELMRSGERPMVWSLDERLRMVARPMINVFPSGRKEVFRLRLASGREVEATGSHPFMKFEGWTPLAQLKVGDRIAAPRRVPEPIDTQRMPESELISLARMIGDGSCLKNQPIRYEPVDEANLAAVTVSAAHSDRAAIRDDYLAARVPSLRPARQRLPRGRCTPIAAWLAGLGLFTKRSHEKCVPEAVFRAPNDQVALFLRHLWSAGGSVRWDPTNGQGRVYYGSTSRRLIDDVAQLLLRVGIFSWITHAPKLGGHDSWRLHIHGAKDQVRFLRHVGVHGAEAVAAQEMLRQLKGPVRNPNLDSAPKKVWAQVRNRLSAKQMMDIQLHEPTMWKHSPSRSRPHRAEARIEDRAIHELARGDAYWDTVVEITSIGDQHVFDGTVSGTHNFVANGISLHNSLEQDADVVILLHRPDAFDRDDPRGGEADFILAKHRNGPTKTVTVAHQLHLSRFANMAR

[25] = biological target: T6, Bcl-2-related protein A1; test: Bfl-1 binding inhibitors, SAR follow-up, biochemical, fluorescence polarization (AID 1070)

Chain of Ephrin type-A receptor 4 (Q03137 whole entry): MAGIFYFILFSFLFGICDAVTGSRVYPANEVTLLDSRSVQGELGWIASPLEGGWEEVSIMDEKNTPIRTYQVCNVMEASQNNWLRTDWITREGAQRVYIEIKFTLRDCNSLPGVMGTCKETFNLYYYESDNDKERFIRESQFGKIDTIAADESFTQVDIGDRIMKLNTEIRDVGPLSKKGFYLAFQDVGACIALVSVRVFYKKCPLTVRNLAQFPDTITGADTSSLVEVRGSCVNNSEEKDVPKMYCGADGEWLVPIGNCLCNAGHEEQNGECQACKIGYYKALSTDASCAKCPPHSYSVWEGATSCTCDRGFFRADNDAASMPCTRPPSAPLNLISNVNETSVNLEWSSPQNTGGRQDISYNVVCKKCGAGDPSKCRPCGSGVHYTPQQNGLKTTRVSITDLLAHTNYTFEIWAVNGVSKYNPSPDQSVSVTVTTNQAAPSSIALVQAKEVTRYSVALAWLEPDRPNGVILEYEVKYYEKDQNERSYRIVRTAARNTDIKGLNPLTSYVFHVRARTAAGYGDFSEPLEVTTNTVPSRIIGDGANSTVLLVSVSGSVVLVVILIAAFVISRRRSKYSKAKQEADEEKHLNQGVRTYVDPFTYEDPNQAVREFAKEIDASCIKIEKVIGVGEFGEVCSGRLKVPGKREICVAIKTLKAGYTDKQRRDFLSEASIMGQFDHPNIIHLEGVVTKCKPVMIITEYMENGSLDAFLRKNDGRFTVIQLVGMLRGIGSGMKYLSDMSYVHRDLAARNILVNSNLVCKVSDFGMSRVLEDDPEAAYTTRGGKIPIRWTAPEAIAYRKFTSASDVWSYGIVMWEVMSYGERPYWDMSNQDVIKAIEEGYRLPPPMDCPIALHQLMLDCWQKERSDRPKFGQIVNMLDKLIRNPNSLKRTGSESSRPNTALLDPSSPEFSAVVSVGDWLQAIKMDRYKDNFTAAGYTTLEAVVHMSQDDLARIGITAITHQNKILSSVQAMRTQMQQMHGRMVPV

Cc1nc(C)c(C(=O)Nc2nc3c(C)cccc3s2)o1
IC50 [1]: 11.3 µM (active) | IC50 [2]: 3.36 µM (active) | IC50 [3]: 0.588 µM (not active)

CC(C)n1nc(C(=O)Nc2cccc(S(=O)(=O)NCc3ccco3)c2)c2ccccc2c1=O
CC50 [4]: 3.81 µM (active)

Cc1ccc(-c2ccc(S(=O)(=O)NCC3CCCO3)cc2)cc1 (stereo unspecified)
IC50 [5]: 7.7 µM (active)

COC(=O)c1ccccc1NC(=O)c1noc2c1CCC2
IC50 [6]: > 10 µM (not active) | IC50 [7]: 2.18 µM (active) | IC50 [8]: 16.5 µM (active) | IC50 [9]: 2.33 µM (active) | IC50 [3]: 9.45 µM (not active) | IC50 [10]: 13.5 µM (not active) | IC50 [11]: > 109 µM (not active)

CCOC(=O)CS(=O)(=O)c1nc(-c2ccccc2)cc(C(F)(F)F)n1
IC50 [12]: 3.72 µM (active) | AC50 [13]: 6.64 µM (active) | AC50 [14]: 3.42 µM (active) | IC50 [15]: 4.43 µM (active) | IC50 [16]: 19.2 µM (inactive) | AC50 [17]: 12.9 µM (active) | AC50 [18]: 6.93 µM (active) | AC50 [19]: 7.22 µM (active) | IC50 [20]: 4.63 µM (active) and 1.18 µM (active) | EC50 [21]: 4.15 µM (active) | IC50 [22]: > 100 µM (not active) | AC50 [23]: 2.77 µM (active) | AC50 [24]: 2.9 µM (active) | IC50 [25]: 5.36 µM (active)

Source: ChEMBL document CHEMBL1201862, “PubChem BioAssay data set” (2004)
